We go through 21 compounds from patent publication US20240109868A1, “EP300/CBP MODULATOR, PREPARATION METHOD THEREFOR AND USE THEREOF” (Miracure Biotechnology Limited, priority 2022, published 2024).

One assay relates to 22Rv1 Cell. The assay can be described thus: 22RV1 cell growth inhibition, CellTiter-Glo, 72 h. The format is cell-based. The following applies: 22RV1 cells, 72 h culture. On the procedure:
(§1) 22RV1 or vCap cells were cultured in RPMI-1640 medium (10% fetal bovine serum and 100 units (per mL) of penicillin/streptomycin dual antibody were added to RPMI-1640) in a 37° C., 5% CO2 cell incubator. Cells at the logarithmic growth phase were inoculated onto a 96-well cell culture plate at 5×10^3 cells/100 μL/well and cultured overnight. Solutions of different concentrations of an active compound in DMSO were added, with the final concentration being 0.5% DMSO. The positive control was 1% TweeN2O, and the negative control was 0.5% DMSO. After 72 h of culture, an equal volume of CellTiter-Glo was added to each well, and the mixtures were mixed homogeneously by shaking for 2 min. The plate was let stand at room temperature for 10 min, and fluorescence signal values were read using a microplate reader. Data were analyzed using Prism 7.0 and graphs were generated. The values are shown as mean f SEM (N=2). […] The X-axis represents compound concentration (μM), and the Y-axis represents % inhibition.
A general note: Cellular ATP, detected with luciferase, serves as a proxy for viable cell number.

The next assay deals with vCap Cell. The assay can be described thus: vCap cell growth inhibition, CellTiter-Glo, 72 h. The class given is cell-based. The settings on record: vCap cells, 72 h culture. On the procedure:
as §1

As to `CNC(=O)N1CCc2cc(C3CCC(OC)CC3)cc(N3CCCc4cc(-c5cnn(C)c5)c(C(F)F)cc43)c2C1` (centres unmarked) [Compound M001199], the IC50 in the assay with 22Rv1 Cell and with vCap Cell was more than 1000 nM each time. Regarding `CC(=O)N1Cc2cc([C@H]3CC[C@@H](S(C)(=O)=O)CC3)cc(N3CCCc4cc(-c5cnn(C)c5)c(C(F)F)cc43)c2C1` [Compound M001299], the IC50 in the assay on 22Rv1 Cell (Homo sapiens, 22Rv1, 72 h) is less than 1000 nM; with vCap Cell (Homo sapiens, VCaP, 72 h) it was less than 1000 nM. `CSC1CCC(c2cc3c(c(N4CCCc5cc(-c6cnn(C)c6)c(C(F)F)cc54)c2)CN(C(C)=O)C3)CC1` (centres unmarked) [Compound M001324]: the IC50 was more than 1000 nM in the assay with 22Rv1 Cell and less than 1000 nM in the assay with vCap Cell. As to `Cn1cc(-c2cc3c(cc2C(F)F)N(c2cccc4c2NC(=O)CCC4)CCC3)cn1` [Compound M001236, 9-[7-(difluoromethyl)-6-(1-methylpyrazol-4-yl)-3,4-dihydro-2H-quinolin-1-yl]-1,3,4,5-tetrahydro-1-benzazepin-2-one], the IC50 was more than 1000 nM in the assay on 22Rv1 Cell (Homo sapiens, 22Rv1, 72 h) and more than 1000 nM in the assay on vCap Cell (Homo sapiens, VCaP, 72 h). In the case of `CN1CCN(c2cc3c(c(N4CCCc5cc(-c6cnn(C)c6)c(C(F)F)cc54)c2)CN(C)C(=O)C3)CC1` [Compound M001024], the IC50 with 22Rv1 Cell (Homo sapiens, 22Rv1, 72 h) was more than 1000 nM; with vCap Cell (Homo sapiens, VCaP, 72 h) it was more than 1000 nM. For the compound `CC(=O)N1Cc2cc(C3CCN(CC(F)(F)F)CC3)cc(N3CCCc4cc(-c5cnn(C)c5)c(C(F)F)cc43)c2C1` [Compound M001057], the concentration for half-maximal inhibition (IC50) with 22Rv1 Cell (Homo sapiens, 22Rv1, 72 h) is more than 1000 nM; with vCap Cell (Homo sapiens, VCaP, 72 h), more than 1000 nM.

On to `CC(=O)N1Cc2cc([C@H]3CC[C@H](O)CC3)cc(N3CCCc4cc(-c5cnn(C)c5)c(C(F)F)cc43)c2C1` [Compound M001194], for which the IC50 in the assay on 22Rv1 Cell (Homo sapiens, 22Rv1, 72 h) is more than 1000 nM; in the assay with vCap Cell (Homo sapiens, VCaP, 72 h), less than 1000 nM. On the same counts, the results for `CNC(=O)N1CCc2cc(C3CCN(C(=O)C4CNC4)CC3)cc(N3CCCc4cc(-c5cnn(C)c5)c(C(F)F)cc43)c2C1` [Compound M001083] are more than 1000 nM and more than 1000 nM. With `CC(=O)N1Cc2cc(C3CCN(C4CCC(=O)NC4=O)C(=O)C3)cc(N3CCCc4cc(-c5cnn(C)c5)c(C(F)F)cc43)c2C1` (centres unmarked) [Compound M001288], the IC50 in the assay on 22Rv1 Cell (Homo sapiens, 22Rv1, 72 h) was more than 1000 nM; with vCap Cell (Homo sapiens, VCaP, 72 h) it was more than 1000 nM. Consider `CNC(=O)N1Cc2cc(C3CCC(F)(F)CC3)cc(N3CCCc4cc(-c5cnn(C)c5)c(C(F)F)cc43)c2C1` [Compound M001094], for which the IC50 in the assay on 22Rv1 Cell (Homo sapiens, 22Rv1, 72 h) is more than 1000 nM; with vCap Cell (Homo sapiens, VCaP, 72 h), more than 1000 nM. With `CON[C@H]1CC[C@H](c2cc3c(c(N4CCCc5cc(-c6cnn(C)c6)c(C(F)F)cc54)c2)CN(C(C)=O)C3)CC1` [Compound M001341], the IC50 is more than 1000 nM with 22Rv1 Cell (Homo sapiens, 22Rv1, 72 h) and more than 1000 nM in the assay with vCap Cell (Homo sapiens, VCaP, 72 h). With `CNC(=O)N1CCc2cc(C3CCN(C(=O)C4CC4)CC3)cc(N3CCCc4cc(-c5cnn(C)c5)c(C(F)F)cc43)c2C1` [Compound M001069], the IC50 with 22Rv1 Cell (Homo sapiens, 22Rv1, 72 h) is less than 1000 nM; with vCap Cell (Homo sapiens, VCaP, 72 h) it was more than 1000 nM. In the case of `CNC(=O)N1CCc2cc(C3CCN(CC(F)(F)F)CC3)cc(N3CCCc4cc(-c5cnn(C)c5)c(C(F)F)cc43)c2C1` [Compound M001060], the IC50 with 22Rv1 Cell (Homo sapiens, 22Rv1, 72 h) is more than 1000 nM; with vCap Cell (Homo sapiens, VCaP, 72 h), more than 1000 nM. On to `CNC(=O)N1Cc2cc(C3=CC4CCC(C3)N4C(=O)OC(C)(C)C)cc(N3CCCc4cc(-c5cnn(C)c5)c(C(F)F)cc43)c2C1` (centres unmarked) [Compound M001097], for which the IC50 is more than 1000 nM in the assay on 22Rv1 Cell (Homo sapiens, 22Rv1, 72 h) and more than 1000 nM in the assay with vCap Cell (Homo sapiens, VCaP, 72 h). In the case of `CNC(=O)N1Cc2nc(C3CCOCC3)nc(N3CCCc4cc(-c5cnn(C)c5)c(C(F)F)cc43)c2C1` [Compound M001244], the IC50 with 22Rv1 Cell (Homo sapiens, 22Rv1, 72 h) was more than 1000 nM; in the assay with vCap Cell (Homo sapiens, VCaP, 72 h), more than 1000 nM. As for `CCN1CC(c2cc3c(c(N4CCCc5cc(-c6cnn(C)c6)c(C(F)F)cc54)c2)CN(C(C)=O)C3)CCC1=O` (centres unmarked) [Compound M001224], the IC50 was less than 1000 nM in the assay with 22Rv1 Cell (Homo sapiens, 22Rv1, 72 h) and less than 1000 nM in the assay on vCap Cell (Homo sapiens, VCaP, 72 h). For the compound `CNC(=O)N1Cc2cc(C3CCC(OC)CC3)cc(N3CCCc4cc(-c5cnn(C)c5)c(C(F)F)cc43)c2C1` (centres unmarked) [Compound M001200], the IC50 in the assay on 22Rv1 Cell (Homo sapiens, 22Rv1, 72 h) is more than 1000 nM; in the assay on vCap Cell (Homo sapiens, VCaP, 72 h), more than 1000 nM. Take `CCN1CC(c2cc3c(c(N4CCCc5cc(-c6cnn(C)c6)c(C(F)F)cc54)c2)CN(C(=O)NC)CC3)CCC1=O` (centres unmarked) [Compound M001221]: the IC50 in the assay with 22Rv1 Cell (Homo sapiens, 22Rv1, 72 h) is less than 1000 nM; in the assay with vCap Cell (Homo sapiens, VCaP, 72 h) it was less than 1000 nM. For `CC(=O)N1Cc2cc(C3CCC([S@@](C)(=N)=O)CC3)cc(N3CCCc4cc(-c5cnn(C)c5)c(C(F)F)cc43)c2C1` (some centres unmarked) [Compound M001329], the IC50 in the assay with 22Rv1 Cell and with vCap Cell was more than 1000 nM throughout. With `CNC(=O)N1Cc2cc(-c3ccc(OC)cc3)cc(N3CCCc4cc(-c5cnn(C)c5)c(C(F)F)cc43)c2C1` [Compound M001121], the IC50 was more than 1000 nM in the assay with 22Rv1 Cell (Homo sapiens, 22Rv1, 72 h) and more than 1000 nM in the assay with vCap Cell (Homo sapiens, VCaP, 72 h).

Consider `CNC(=O)N1CCc2cc(C3CCC(NS(C)(=O)=O)CC3)cc(N3CCCc4cc(-c5cnn(C)c5)c(C(F)F)cc43)c2C1` (centres unmarked) [Compound M001314], for which the IC50 in the assay with 22Rv1 Cell (Homo sapiens, 22Rv1, 72 h) was more than 1000 nM.

By IC50 is commonly meant the point on the concentration scale where inhibition reaches its midpoint. Low readings indicate higher potency, high ones lower potency.
